Patent publication US20200360311A1, “USE OF 3-METHYLMETHCATHINONE” (MIND MEDICINE, NC., priority 2017, published 2020)

Legend:
[1] = Case Study II: 3-MMC couple's therapy; format: in vivo, human; details: heterosexual couple, 6 sessions over 6 months, 150 milligrams each orally plus booster 100 milligrams 1 hour later
Description: Heterosexual couple married for 17 years were caught in a cycle of repetitive conflict over what they both agreed were trivial issues. They described intense, mutual emotional reactivity and angry outbursts which was problematic enough to begin to discuss divorcing. As a last attempt to resolve their conflicts they agreed to participate in once a month 3-MMC couple's therapy. […] In this case the therapy consisted of one therapist who assessed the couple and prepared for the 3-MMC sessions with 2 non-3MMC sessions where the couple was taught a specific communication technique (Non Violent Communication). The space was a normal therapist's office with comfortable furnishings, 3 chairs and an adjoining kitchen. The 3-MMC was given orally which a dosage of 150 milligrams each followed by a booster dosage of 100 milligrams given 1 hour after the first dosage. The couple alternated between periods of listening to relaxing music and conversation, where they explored their own perspectives on how to communicate in relationship both currently and historically. The counsellor would translate some of the couple's statements in the language of non-violent communication and encourage self responsibility. The end of the session occurred 5 hours after the booster dose and a light meal was prepared and served and the couple and therapist ate and debriefed the session. […]

[2] = Case Study I: 3-MMC-assisted psychotherapy for post-traumatic stress disorder (PTSD); format: in vivo, human; details: person, three 3-MMC-assisted psychotherapy sessions, 200 milligrams orally
Description: Person suffering from PTSD who was previously incorrectly diagnosed with bipolar disorder, unable to work was under the care of a psychiatrist with no improvement in 4 years. […] In this case, the therapy consisted of both a male and female therapist in a room designed for this therapy (soft lighting, bed, attractive pillows, carefully chosen music, inspirational art—spiritual and nature). The patient was taught relaxation and breathing techniques and briefed in what to expect from the experience. In this case 200 milligrams of 3-MMC was given orally and the patient then lay down on the bed and listened to soothing music for 1.5 hours with eye shades on (internal experience). […] The therapists engaged in psychotherapy for 2 hours after which the patient once again lay down and put on the eyeshades for another 2 hours. Subsequently, the patient re-engaged with the therapists and explored their insights about how they could reframe the traumatic memory to be a positive learning experience.

[3] = animal models, cited from earlier work
[4] = Human subject's perception of 3-MMC's effect after oral administration; format: in vivo; details: human subjects
Protocol: The present inventors have observed that, in some embodiments the onset of human subject's perception of 3-MMC's effect is approximately 30-90 minutes following oral administration, varying according to whether the 3-MMC was administered to a fasting (more rapid onset), or following a meal (less rapid onset). In some cases, the perception of peak effect of 3-MMC in human subjects occurred between 10 to 30 minutes after the initial perception of onset of 3-MMC's effect. The present inventors further observed that the duration of perception of the effect of 3-MMC in human subjects was, in most cases, for no greater than 4 hours following oral administration.

[5] = Case Study III: 3-MMC assisted therapy for relationship distress; format: in vivo, human; details: person, four 3-MMC assisted psychotherapy sessions, 300 milligrams orally
Protocol: Single professional entered in to 3-MMC assisted therapy to understand why their relationships with men never lasted more than a few months. […] In this case the patient was assessed and prepared by the female therapist in two preliminary sessions where the patients relationship history was explored. The patient was encouraged to consider the connection between their experience of their parent's relationship when they were a child and their reaction to men they dated which was coloured by their past history. The location of the therapy was the living room of the therapist which had been prepared with inspirational art and wall hangings. The sound system consisted of headphones and an ipod with soothing/spiritual music. On the treatment days the patient was given 300 milligrams of 3-MMC orally. The treatment session started by the therapist guiding a meditation exercise and then the patient was encouraged to reflect internally by lying down with eyeshades and listening to the music. In this case the internal experience was 20 minutes after which the patient removed the eyeshades and turned off the music and proceeded to express intense emotions which related to their past anger at their parent. […]

[6] = Case Study IV: 3-MMC-assisted psychotherapy for PTSD and Generalized Anxiety Disorder (GAD); format: in vivo, human; details: person, 200-400 mg twice weekly on two consecutive days for 8 weeks; from week 5 also EMDR with propanolol
Description: A person had been suffering from Post traumatic Stress Disorder (PTSD), depression, and General Anxiety Disorder (GAD).
The symptoms they experienced were panic attacks, hyperventilation, pain in the chest, numbness, and tingling in the extremities, Irritable-Bowel Syndrome (IBS), nightmares, and insomnia.
The PTSD had been caused by a particular life-threatening event, as well as other related incidences that had unfolded in their youth. The psychological ramifications of these events went undiagnosed for many years, although they were eventually treated for anxiety and depression. They refused however, to take the anti-depressants that their physician was willing to prescribe them, and only occasionally would take 5-10 mg Oxazepam for acute panic attacks.
At the time that they started with the 3-MMC-assisted psychotherapy, they had been suffering from an occupational burnout for 4 months already cf. DC-10 Z-73.0.
3-MMC was administered twice weekly on two consecutive days at a dosage of 200-400 mg each time for a period of 8 weeks. Starting at week 5; 3-MMC-assisted psychotherapy took place once a week. Each session lasted 6.5-10 h with an average of 8.5 h per session. […]

CNC(C)C(=O)c1cccc(C)c1 (stereo not drawn) [3-MMC, 3-methylmethcathinone]
outcome of couple's therapy [1]: able to take responsibility for their own problematic behaviour and negotiate a more functional relationship
clinical outcome of PTSD patient [2]: no longer diagnosable with either PTSD or bipolar and was able to return to gainful employment
time at which peak serum concentrations are apparent ([3]; after oral administration): 5 to 10 min
apparent plasma half-life ([3]; after oral ingestion): approximately 0.8 hours
onset of subject's perception of effect ([4]; following oral administration, fasting more rapid, following a meal less rapid): 30 to 90 min
duration of perception of the effect ([4]; following oral administration, in most cases): ≤ 4 h
perception of peak effect ([4]; time after the initial perception of onset of effect, in some cases): 10 to 30 min
outcome of therapy for relationship distress [5]: understood their previously unconscious behaviour pattern
level of fear associated with traumatic memories [6]: led the level of associated fear to decrease with each subsequent session
